Data reported in patent publication US9526915B2, “Methods for regulating cell mitosis by inhibiting serine/threonine phosphatase” (priority 2008, dated 2016).
Entries after “also recorded” stand apart in the source; their conditions may differ.

Tests used:
[1] = system: DAOY medulloblastoma cells; assay: DAOY medulloblastoma s.c. xenografts in SCID mice; format: in vivo; conditions: treatment from day 6, by day 23
Experimental: DAOY medulloblastoma cells were implanted subcutaneously into the flanks of SCID mice. On day 6, mice were divided into 3 groups, one group receiving Compound 100, one group receiving Compound 102, and one group receiving vehicle alone. The subcutaneous tumor masses were measured on day 6, day 13, day 18, and on day 23 when all animals were sacrificed. […] In this model DAOY cells, when untreated, reached their maximum growth about 2 weeks after implantation with slow regression thereafterwards.

[2] = system: U373 cells; assay: Cell cycle distribution of U373 cells by FACS; format: cell-based, human; conditions: U373, 48 hours
Experimental: Cells in unsynchronized logarithmic growth were exposed to vehicle or drug and adherent cells and cells in the media were collected. Harvested cells were fixed with 70% cold ethanol for 20 min at −20 degrees, washed with PBS, and stained with 10 ug/ml of PI and 1 ug/ml RNAse in TBS for 30 minutes and analyzed by FACS. A, Flow cytometry profiles of U87 cells after exposures to DMSO only, compound 102 only, 5 uM; TMZ only, 25 uM; compound 102 with TMZ combination, doxorubicin only, 2.0 uM and compound 102 with doxorubicin combination. B, Flow cytometry profiles of U373 cells. Exposures as in A, and C, Schema of proposed mechanisms of compound 102 enhancement of cancer chemotherapy.
We analyzed cell cycle patterns of U87MG and U373 cells 48 hours after exposure to TMZ or DOX alone and in combination with compound 102.

[3] = molecular target: PP2A (Homo sapiens, UniProt P67775); assay: PP2A activity in DAOY cells (immunoprecipitated PP2A/Akt-1 complexes, Malachite Green assay); format: cell-based; design: PP2A activity from the immunoprecipitated complexes was assayed; endogenous in cells; host or cells: DAOY cells; conditions: 0.15, 0.25, 0.3 μM, 1 hour
Experimental: Cultured DAOY cells were plated in […] flasks. When the cells were 80% confluent, the media was replaced with media containing either 0.15 μM Compound 102, 0.25 μM Compound 102, 0.3 μM Compound 102, or an equivalent volume of PBS vehicle. After 1 hour, the cells were washed three times in a 0.9% normal saline solution. T-PER solution was added to the cells, and cells were prepared for protein extraction. Lysates from each treatment group containing 300 μg of protein were applied to a spin column (Catch and Release v2.0 Reversible Immunoprecipitation System, Millipore, Billerica, Mass.) for immunoprecipitation of PP2A/Akt-1 kinase protein complexes using polyclonal anti-rabbit Akt-1 antibody (Cell Signaling Technology, Danvers, Mass.). PP2A activity from the immunoprecipitated complexes was assayed using a Malachite Green Phosphatase Assay specific for serine/threonine phosphatase activity (Ser/Thr Phosphatase Assay Kit 1, Millipore, Billerica, Mass.).

[4] = system: SH-SY5Y xenografts; assay: SH-SY5Y neuroblastoma s.c. xenografts in SCID mice, compound 102 and TMZ; format: in vivo; conditions: as U87MG plus one additional cycle; followed 7 weeks
Experimental: 5×10^6 U87MG cells were inoculated s.c. into each flank of 20 SCID mice. When the xenografts were 0.5+/−0.1 cm (day 0), 5 animals each received i.p. vehicle alone days 1-12 (50% DMSO/H20); compound 102 alone at 1.5 mg/kg days 1-3, 5-7, & 9-11; TMZ alone at 80 mg/kg days 4, 8, 12; or both drugs at the same doses and schedules. If xenografts reached 1800 mm^3, animals were sacrificed. […] B, Survival curve combining the data from the study shown in FIG. 12A, with a second identical study involving a total of 10 animals with two xenografts each. Disease-free survival was defined as no recurrence of either xenografts. […] As in 12A, except that xenografts of SH-SY5Y cells were implanted in one flank only and animals were treated with one additional cycle of drugs, i.e., compound 102 on days 13-15, TMZ, on day 16, and compound 102 plus TMZ on the same schedules. […] E, Western blots of U87 cells in culture 24 hours after exposure to compound 102 at 2.5 uM, TMZ at 25 uM or DOX at 2 uM, and compound 102 plus TMZ or DOX. F, Western blots of U373 cells 24 hours after exposure to compound 102 at 2.5 uM, doxorubicin at 2 uM, and both drugs. G, Western blots of U373 cells 24 hours after exposure to TMZ at 25 uM, okadaic acid at 2 nM, and both drugs. […]

[5] = system: U87 cells; assay: U87 GBM cell growth in vitro, viable cells counted; format: cell-based; conditions: Homo sapiens, U-87 MG, read-out: IC50 inhibition of GBM cell growth
Experimental: FIG. 6: Effect of Compound 102 on U87 Cells In Vitro at 1 uM; 2 uM; 5 uM; and 10 uM.
Viable cells were counted (mean and s.d.; n=3; Coulter particle counter).
Recent work led to the discovery that treatment with the compound, compound 100, and several homologs inhibit the serine/threonine protein phosphatases PP2A (FIG. 1). Compound 102 inhibits PP2A (IC50=˜0.4 μM) more potently than PP1 (IC50=˜80 μM) (FIG. 2). Associated with their inhibition of PP2A, Compound 100 and homologs inhibit a variety of human cancer cell types growing in cell culture and growing in vivo as xenografts implanted subcutaneously in SCID mice (FIG. 3 and FIG. 4). […] Death of these cancer cells is associated with profound disruption of microtubular structures. Such patterns of disordered microtubules during mitosis have been noted after exposure of cancer cells to spindle toxins include such vincristine, vinblastine, taxol, taxotere, ionizing radiation, and DNA damaging agents including anthracyclines and the platinum based compounds. The morphologic appearance of cells displaying these characteristics has been called the mitotic catastrophe phenotype (Castedo et al 2004).

PP2A, sequence (P67775 whole entry): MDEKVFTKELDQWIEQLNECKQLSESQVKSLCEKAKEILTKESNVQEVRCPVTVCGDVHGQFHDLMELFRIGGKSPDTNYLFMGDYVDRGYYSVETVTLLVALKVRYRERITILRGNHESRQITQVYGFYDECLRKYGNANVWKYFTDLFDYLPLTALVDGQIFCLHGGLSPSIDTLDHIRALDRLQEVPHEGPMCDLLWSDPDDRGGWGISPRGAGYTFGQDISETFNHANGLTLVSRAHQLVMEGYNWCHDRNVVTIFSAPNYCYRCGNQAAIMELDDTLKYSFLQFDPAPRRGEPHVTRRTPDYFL
PP2A, sequence (P30153 2-589 partner limits assumed): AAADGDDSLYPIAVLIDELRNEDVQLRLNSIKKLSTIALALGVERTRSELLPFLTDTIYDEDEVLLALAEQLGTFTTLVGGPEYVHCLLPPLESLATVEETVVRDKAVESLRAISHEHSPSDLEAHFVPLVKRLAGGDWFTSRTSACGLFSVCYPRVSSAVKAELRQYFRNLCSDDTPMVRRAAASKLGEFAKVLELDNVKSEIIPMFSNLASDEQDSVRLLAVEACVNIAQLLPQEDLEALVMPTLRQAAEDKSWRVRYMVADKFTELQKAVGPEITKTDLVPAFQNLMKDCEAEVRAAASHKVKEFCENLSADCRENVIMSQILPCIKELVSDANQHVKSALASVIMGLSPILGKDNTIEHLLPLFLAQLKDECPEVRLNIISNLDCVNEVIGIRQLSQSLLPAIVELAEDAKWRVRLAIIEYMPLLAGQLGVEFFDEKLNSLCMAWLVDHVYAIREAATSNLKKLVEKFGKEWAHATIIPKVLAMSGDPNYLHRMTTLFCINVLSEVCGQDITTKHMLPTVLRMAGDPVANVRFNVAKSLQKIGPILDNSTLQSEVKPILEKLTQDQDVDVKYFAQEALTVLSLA

CC(C)(C)OC(=O)N1CCN(C(=O)C2C(C(=O)O)[C@H]3CC[C@@H]2O3)CC1 (stereo partly shown) [Compound 102]
DAOY subcutaneous tumor mass [1]: marked regression | G1 phase cells ([2]; compound 102 5 uM, TMZ 25 uM, doxorubicin 2.0 uM): no effect | G2/M phase cells ([2]; same concentrations): no effect | S phase cells ([2]; same concentrations): no effect | PP2A activity in DAOY cell line [3]: Inhibition | NB (SH-SY5Y) xenograft growth [4]: completely suppressed growth for 2 weeks; also recorded: no growth until week 3 | IC50 [5]: ~4 µM
